Data published in patent US20100035259A1, “BIOMARKERS AND METHODS FOR DETERMINING SENSITIVITY TO VASCULAR ENDOTHELIAL GROWTH FACTOR RECEPTOR-2 MODULATORS” (Bristol-Myers Squibb Company, priority 2007, published 2010).
Blank lines part the entries; values can stand above or below the molecule they belong to.

Legend:
VEGFR-2 = VEGFR-2 (Homo sapiens, UniProt P35968); assay: Inhibition of VEGFR-2; type: biochemical
FGFR-2 = FGFR-2 (Homo sapiens, UniProt P21802); assay: Inhibition of FGFR-2; type: biochemical
mouse stromal tissues = assay: Transcriptional profiling of GEO xenograft tumors on mouse 430A arrays (genes in mouse stromal tissues); type: in vivo; conditions: for ESM1 level: after 2 hours treatment; for expression value of ESM1 in stromal tissue: treatment at 17 Days, in comparison with the control (FIG. 1)
Method: (§1) Tumors were propagated in nude mice as subcutaneous (sc) implants using human GEO colon tumor cell lines. Tumors were maintained in nude mice by serial passage. Treated animals were checked daily for treatment related toxicity/mortality. Each group of animals was weighed before the initiation of treatment (Wt1) and then again following the last treatment dose (Wt2). The difference in body weight (Wt2-Wt1) provided an overt measure of treatment-related toxicity. […] Tumor response was determined by measurement of tumors with a caliper twice a week, until the tumors reached a predetermined target size. Animals that were distributed to various treatment and control groups during the study were eventually sacrificed to obtain tumor and blood samples for genomic and protein analysis (Table 1).
(§2) Mouse GEO xenograft tumors, treated and non-treated, were surgically removed at appropriate time points and split into two halves. One half of the tumor was mixed in a vial of 10% formalin to be used for IHC and the other half was mixed in 1.0 ml of RNAlater™ RNA Stabilization Reagent (Ambion, Inc., Austin, Tex.) held at room temperature for 30-minutes then stored at −80° C. Total RNA was extracted from the tumor samples using the RNeasy Kit™ (Qiagen, Valencia Calif.). A least 1 μg total RNA with a 260/280 ratio >1.8 by spectrophotometry (DU640 UV, Beckman Coulter, Fullerton, Calif.) was required for transcriptional profiling. Briefly, the tumor samples were homogenized in a lysis-binding solution supplied by Qiagen. An equal volume of ethanol was mixed into each sample, the mixture was passed through the filter cartridges provided, and the rest of the extraction protocol was followed (Ambion). RNA yield and quality were assessed on a standard 1% agarose gel. […] RNA samples were stored at −80° C.
(§3) Transcriptional profiling was performed on the RNA obtained from the GEO xenograft tumor samples. The Affymetrix GeneChip system (Affymetrix, Santa Clara, Calif.) was used for hybridization and scanning of the human U133A and mouse 430A arrays. Generation of cRNA followed a standard T7 amplification protocol. Total RNA was reverse-transcribed with SuperScript II™ (Gibco, Carlsbad, Calif.) in the presence of T7-(dT)24 primer to generate first strand cDNA. A second-strand cDNA synthesis was performed in the presence of DNA Polymerase I, DNA ligase, and RNase H (Gibco). The resulting double-stranded cDNA was blunt-ended using T4 DNA polymerase. This double-stranded cDNA was then transcribed into cRNA in the presence of biotin-ribonucleotides using the BioArray High Yield RNA transcript labeling kit (Enzo Life Sciences, Farmingdale, N.Y.). The amplified, biotin-labeled cRNA was purified using Qiagen RNeasy™ columns (Qiagen Sciences), quantified and fragmented at 94° C. for 35 minutes in the presence of fragmentation buffer (1×). Fragmented cRNA was hybridized to the Affymetrix U113A and 430A arrays overnight at 42° C. The arrays were then placed in the fluidics stations for staining and washing as recommended by Affymetrix protocols. The chips were scanned and raw intensity values were generated for each probe on the arrays.
(§4) 20 HG-U133A2 chips were normalized by the RMA (Robust Multi-array Analysis) method as described by R. A. Irizarry et al., Nucleic Acids Res., February 15; 31(4):e15 (2003). The same normalization was done for the 20 Mouse430A2 chips.
(§5) Differentially expressed genes were defined as: (i) FDR (false discovery rate) q value less than 0.05 when comparing specific compound treatment at single time point to the control (no treatment) at 0 time point and (ii) fold change bigger than 2 (log2Foldchange>1 or <−1) when compared specific treatment to control.

FGFR-1 = FGFR-1 (Homo sapiens, UniProt P11362); assay: Inhibition of FGFR-1; type: biochemical
[1] = system: human GEO colon tumor xenograft tumor tissues; assay: Transcriptional profiling of GEO xenograft tumors on human U133A arrays (genes in tumor tissues); type: in vivo
Method: as §1, §2, §3, §4, §5

human GEO colon tumor = assay: Tumor growth in GEO colon cancer model (caliper measurement); type: in vivo, nude mice; conditions: compared to bevacizumab
Method: as §1

[2] = mouse stroma tissue, 17 days time point
[3] = tumor xenografts, after 17 days
[4] = xenograft tumor tissues, 17 days (FIG. 4)

FGFR-1, sequence (P11362 22-822, species assumed): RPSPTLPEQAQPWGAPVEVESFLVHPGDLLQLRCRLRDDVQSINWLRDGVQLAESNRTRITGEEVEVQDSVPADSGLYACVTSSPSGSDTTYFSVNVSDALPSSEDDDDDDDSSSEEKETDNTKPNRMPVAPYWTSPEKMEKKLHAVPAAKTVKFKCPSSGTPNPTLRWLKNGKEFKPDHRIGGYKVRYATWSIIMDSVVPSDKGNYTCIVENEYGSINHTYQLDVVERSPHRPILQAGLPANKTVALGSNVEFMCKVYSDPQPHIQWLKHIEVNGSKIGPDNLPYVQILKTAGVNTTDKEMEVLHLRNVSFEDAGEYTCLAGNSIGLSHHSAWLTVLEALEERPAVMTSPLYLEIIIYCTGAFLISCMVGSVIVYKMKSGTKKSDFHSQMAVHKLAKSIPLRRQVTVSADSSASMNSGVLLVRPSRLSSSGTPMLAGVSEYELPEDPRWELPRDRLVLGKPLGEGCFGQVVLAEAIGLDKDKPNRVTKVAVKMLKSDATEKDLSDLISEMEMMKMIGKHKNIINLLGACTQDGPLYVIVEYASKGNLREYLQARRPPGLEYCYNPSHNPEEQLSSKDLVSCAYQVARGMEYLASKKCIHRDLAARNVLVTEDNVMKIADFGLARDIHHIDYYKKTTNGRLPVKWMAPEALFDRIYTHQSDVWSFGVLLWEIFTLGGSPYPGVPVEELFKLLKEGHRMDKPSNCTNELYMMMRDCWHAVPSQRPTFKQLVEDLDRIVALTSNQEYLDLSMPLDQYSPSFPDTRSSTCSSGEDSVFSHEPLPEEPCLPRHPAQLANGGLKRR
FGFR-2, sequence (P21802 22-821, species assumed): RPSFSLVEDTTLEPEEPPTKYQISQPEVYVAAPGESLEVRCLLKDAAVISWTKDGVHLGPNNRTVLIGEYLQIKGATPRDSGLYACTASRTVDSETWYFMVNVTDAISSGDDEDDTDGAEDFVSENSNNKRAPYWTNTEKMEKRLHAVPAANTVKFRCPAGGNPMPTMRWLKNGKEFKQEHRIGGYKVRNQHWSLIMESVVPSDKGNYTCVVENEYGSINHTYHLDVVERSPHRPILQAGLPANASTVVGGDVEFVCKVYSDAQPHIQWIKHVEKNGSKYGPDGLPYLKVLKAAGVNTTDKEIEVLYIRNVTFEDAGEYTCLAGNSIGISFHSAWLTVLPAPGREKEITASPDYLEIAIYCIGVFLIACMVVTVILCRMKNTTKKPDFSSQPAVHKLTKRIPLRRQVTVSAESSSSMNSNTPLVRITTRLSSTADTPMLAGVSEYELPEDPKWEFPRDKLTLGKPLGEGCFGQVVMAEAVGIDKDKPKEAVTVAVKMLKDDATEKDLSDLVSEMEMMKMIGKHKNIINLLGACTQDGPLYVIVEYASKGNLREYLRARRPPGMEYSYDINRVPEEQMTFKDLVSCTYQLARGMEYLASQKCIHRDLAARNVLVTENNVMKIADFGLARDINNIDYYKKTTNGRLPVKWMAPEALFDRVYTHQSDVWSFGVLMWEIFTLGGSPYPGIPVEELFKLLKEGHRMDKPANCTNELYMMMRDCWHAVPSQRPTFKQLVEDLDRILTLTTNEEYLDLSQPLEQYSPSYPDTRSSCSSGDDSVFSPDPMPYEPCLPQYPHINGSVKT
VEGFR-2, sequence (P35968 20-1356, species assumed): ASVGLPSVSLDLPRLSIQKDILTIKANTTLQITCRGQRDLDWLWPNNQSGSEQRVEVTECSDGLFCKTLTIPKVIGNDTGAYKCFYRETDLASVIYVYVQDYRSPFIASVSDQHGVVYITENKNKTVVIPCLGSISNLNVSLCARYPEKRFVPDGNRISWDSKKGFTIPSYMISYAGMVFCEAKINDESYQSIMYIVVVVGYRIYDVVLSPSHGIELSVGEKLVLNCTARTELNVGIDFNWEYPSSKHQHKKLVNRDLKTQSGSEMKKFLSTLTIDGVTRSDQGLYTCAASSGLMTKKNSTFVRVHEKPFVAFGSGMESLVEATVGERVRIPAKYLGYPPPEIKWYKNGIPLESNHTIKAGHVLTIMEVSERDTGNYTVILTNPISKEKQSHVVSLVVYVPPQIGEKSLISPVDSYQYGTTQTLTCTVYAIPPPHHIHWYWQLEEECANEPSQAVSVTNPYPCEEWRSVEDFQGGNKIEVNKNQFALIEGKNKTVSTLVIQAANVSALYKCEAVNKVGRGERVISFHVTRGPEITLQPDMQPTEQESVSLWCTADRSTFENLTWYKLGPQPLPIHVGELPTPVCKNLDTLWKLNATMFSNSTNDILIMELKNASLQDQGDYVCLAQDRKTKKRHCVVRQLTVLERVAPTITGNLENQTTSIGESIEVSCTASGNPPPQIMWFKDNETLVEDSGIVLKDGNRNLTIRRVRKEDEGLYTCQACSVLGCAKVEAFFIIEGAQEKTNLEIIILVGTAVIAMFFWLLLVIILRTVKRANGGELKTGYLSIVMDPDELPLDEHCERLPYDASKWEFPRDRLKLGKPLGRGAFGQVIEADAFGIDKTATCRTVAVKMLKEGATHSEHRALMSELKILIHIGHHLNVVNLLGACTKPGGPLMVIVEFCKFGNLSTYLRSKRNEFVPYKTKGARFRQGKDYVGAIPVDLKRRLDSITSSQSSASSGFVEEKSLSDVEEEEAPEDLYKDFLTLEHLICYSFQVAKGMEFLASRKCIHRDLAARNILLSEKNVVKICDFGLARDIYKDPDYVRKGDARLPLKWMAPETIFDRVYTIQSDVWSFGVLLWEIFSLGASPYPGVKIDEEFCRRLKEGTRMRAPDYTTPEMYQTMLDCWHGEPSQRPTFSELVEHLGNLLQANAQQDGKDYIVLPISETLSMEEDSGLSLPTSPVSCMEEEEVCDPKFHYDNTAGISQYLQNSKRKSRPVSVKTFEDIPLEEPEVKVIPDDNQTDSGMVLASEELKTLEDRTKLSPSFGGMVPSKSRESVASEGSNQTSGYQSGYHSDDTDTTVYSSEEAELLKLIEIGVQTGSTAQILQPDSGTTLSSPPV

inhibition of VEGFR-2 (VEGFR-2): potent inhibition
inhibition of FGFR-2 (FGFR-2): inhibition
inhibition of FGFR-1 (FGFR-1): inhibition
Molecule: Cc1cc2c(F)c(Oc3ncnn4cc(OC[C@@H](C)OC(=O)[C@H](C)N)c(C)c34)ccc2[nH]1 [compound 1, [(1R), 2S]-2-Aminopropionic acid 2-[4-(4-fluoro-2-methyl-1H-indol-5-yloxy)-5-methylpyrrolo[2,1-f][1,2,4]triazin-6-yloxy]-1-methylethyl ester]
ESM1 level (mouse stromal tissues): decreasing trend
expression level of S100A8 (mouse stromal tissues; [2]): up-regulated
expression level of S100A9 (mouse stromal tissues; [2]): up-regulated
expression value of ESM1 in stromal tissue (mouse stromal tissues): significantly decreases
CD14 expression (mouse stromal tissues; upon treatment, 17 days): elevated
CEACAM1 expression ([1]; 3 probe sets (206576_s_at, 211889_x_at, 209498_at), treatment at 17 days): significant increase
expression level of RAGE, up-regulated ([1]; human xenograft tissue, 17 days, FDR q=0.002): 1.9 fold
AKAP7 inhibited ([1]; treatment at 17 days, FDR q<0.008 (FIG. 4)): 3.5 fold
EMP1 up-regulated ([1]; tumor tissue, 17 Days, significant FDR q values (FIG. 3)): 3.9 fold
FGF-8 levels [1, 3]: elevated
FGF-18 levels [1, 3]: elevated
FGF-22 levels [1, 3]: elevated
FGFR-2 levels [1, 3]: elevated
FGF-2 levels ([1]; tumor xenografts, after 17 days, low expression): didn't change much
Expression of Collagen 18 [1, 4]: up-regulated
VEGF expression [1, 4]: up-regulated
VEGFB expression [1, 4]: up-regulated
ability to inhibit tumor growth (human GEO colon tumor): increase affect on the ability to inhibit tumor growth when compared to bevacizumab

Molecule: bevacizumab: AVASTIN (bevacizumab), indirectly inhibits the VEGFR-2 signaling pathway by preventing VEGF ligand binding [reference compound]
ESM1 level (mouse stromal tissues): decreasing trend
expression value of ESM1 in stromal tissue (mouse stromal tissues): significantly decreases
